Literature values, collected in patent US20130345257A1, “COMPOSITION FOR LUPUS NEPHRITIS AND METHODS OF MAKING AND USING THE SAME” (The Regents of the University of California, priority 2012, published 2013).

Key:
murine SLE model = conditions: mouse, in vivo; cited from earlier work
human lupus = conditions: phase 1b trial; cited from earlier work
[1] = pulled out of a clinical trial; cited from earlier work

## CCc1cccc2c1c(O)c(C(=O)N(CC)c1ccccc1)c(=O)n2C [paquinimod]
Murine SLE model
  Efficacy in murine SLE model: effective
Human lupus
  Adverse events profile: favorable adverse events profile

## CN(C(=O)c1c(O)c2ccccc2n(C)c1=O)c1ccccc1 [roquinimex]
[1]
  Toxicity in clinical trial: serious cardiovascular toxicities
